# System: krait snake venom acetylcholinesterase (AChE)
# Assay type: biochemical, Bungarus sindanus
# Conditions: no extract (control); 0.5-1 mM substrate, 50 mM phosphate pH 7.4, 37 °C; crude venom as enzyme source
compound,measurement,value
CC(=O)SCC[N+](C)(C)C [acetylthiocholine],Km,160 µM

# Reference: paper PMC6118079 (Iranian Journal of Basic Medical Sciences, 2018)
